Measured values from patent US20250090699A1, “FAP TARGETING CYCLIC PEPTIDES AND CONJUGATES THEREOF” (Novartis AG, priority 2023, published 2025).
Starred links: 1 amine or outer side, 2 acyl side, 3 side chain; linkers in the order of their positions; H or OH if unused. Positions of bridges follow the written chain, without caps; N, C: chain ends. Non-standard residues stand in square brackets, D forms with d. Residues, ends and D or L forms follow the SMILES beside them. Groups on a side chain read outwards from the residue. Chains are numbered I, II in the order given. *: point of attachment. F(4amPEG2NHDOTA-Lu) = lutetium complex of (S)-2,2',2''-(10-(1-(4-(2-amino-2-carboxyethyl)phenyl)-3,12-dioxo-5,8-dioxa-2,11-diazatridecan-13-yl)-1,4,7,10-tetraazacyclododecane-1,4,7-triyl)triacetic acid (Phe with 4-aminomethyl-PEG2-DOTA-Lu), O=C([O-])CN1CCN(CC(=O)[O-])CCN(CC(=O)NCCOCCOCC(=O)NCc2ccc(C[C@H](N[*:1])C(=O)[*:2])cc2)CCN(CC(=O)[O-])CC1.[Lu+3]; X2 = O=C(O)CN1CCN(CC(=O)O)CCN(CC(=O)NC(CC(=O)NCCOCCOCCOCC(=O)[*:1])CC(=O)NCCOCCOCCOCC(=O)[*:2])CCN(CC(=O)O)CC1; X1 = O=C(O)CN1CCN(CC(=O)O)CCN(CC(=O)NC(CC(=O)NCCOCCOCC(=O)[*:1])CC(=O)NCCOCCOCC(=O)[*:2])CCN(CC(=O)O)CC1; COpipzaa = 4-(carboxymethyl)piperazine-1-carbonyl, O=C(O)CN1CCN(C(=O)*)CC1; hS(Pr) = O-propyl-L-homoserine, CCCOCC[C@H](N[*:1])C(=O)[*:2]; DOTA = O=C(O)CN1CCN(CC(=O)O)CCN(CC(=O)*)CCN(CC(=O)O)CC1; Nicotinoyl(6-NMe3+) = C[N+](C)(C)c1ccc(C(=O)*)cn1; Phe(4-CH2NH2) = NCc1ccc(C[C@H](N)C(=O)O)cc1; Piperazinyl(4-CH2COOH) = O=C(O)CN1CCN(*)CC1; AEF = NCCOc1ccc(C[C@H](N)C(=O)O)cc1; NMeF = CN[C@@H](Cc1ccccc1)C(=O)O; Aoc(2) = CCCCCC[C@H](N)C(=O)O; Ahp(2) = CCCCC[C@H](N)C(=O)O; hSer = N[C@@H](CCO)C(=O)O; AEEA = NCCOCCOCC(=O)O; CO = O=C([*:1])[*:2]; Propyl = CCC*

How the values were obtained:
mouse FAP [1] = molecular target: T1, mouse FAP (Mus musculus, UniProt P97321); assay: Surface plasmon resonance (SPR) for peptide affinity, mouse FAP; type: binding
T1 construct: biotinylated His, Avi tag, mouse FAP (26-761, FAP-M82Q5); His; Avi tag (biotinylated); purchased AcroBiosystems FAP-M82Q5
T1 sequence (P97321 26-761): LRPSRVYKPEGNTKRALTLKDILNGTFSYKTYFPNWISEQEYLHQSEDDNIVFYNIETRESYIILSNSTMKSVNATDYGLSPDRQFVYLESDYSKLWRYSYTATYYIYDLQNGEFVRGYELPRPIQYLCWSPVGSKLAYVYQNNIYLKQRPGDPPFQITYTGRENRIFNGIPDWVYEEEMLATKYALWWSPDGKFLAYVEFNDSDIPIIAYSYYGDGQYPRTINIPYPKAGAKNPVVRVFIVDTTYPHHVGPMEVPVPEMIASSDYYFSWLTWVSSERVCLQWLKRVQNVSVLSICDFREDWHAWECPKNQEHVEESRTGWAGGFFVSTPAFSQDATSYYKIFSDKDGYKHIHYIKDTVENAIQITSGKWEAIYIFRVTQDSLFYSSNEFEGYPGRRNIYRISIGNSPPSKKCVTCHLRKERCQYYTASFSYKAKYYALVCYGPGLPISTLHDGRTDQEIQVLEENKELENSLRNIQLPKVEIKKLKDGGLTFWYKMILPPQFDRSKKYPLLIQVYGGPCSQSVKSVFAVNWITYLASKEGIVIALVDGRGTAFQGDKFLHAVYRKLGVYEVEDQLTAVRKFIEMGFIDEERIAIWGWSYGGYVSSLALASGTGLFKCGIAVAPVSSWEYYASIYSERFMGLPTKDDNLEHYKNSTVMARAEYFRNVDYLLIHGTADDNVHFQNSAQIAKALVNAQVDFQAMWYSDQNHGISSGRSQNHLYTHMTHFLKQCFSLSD
Outline: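 Biotinylated His/Avi-tagged FAP ectodomains (human 26-760, mouse 26-761) captured or immobilized on Biacore sensor chips; peptides run at 25 °C in HBS-EP+ pH 7.6 with 2% DMSO, single-cycle kinetics, 8 concentrations. KD from 1:1 binding-model fit of sensorgrams.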

mouse FAP [2] = molecular target: T1, mouse FAP; assay: Enzymatic FAP competition assay (Z-Gly-Pro-AMC fluorescence), mouse FAP; type: biochemical; conditions: read-out: m. FAP, Enz., IC50
Outline: (§1)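 Biotinylated His/Avi-tagged FAP ectodomain (human 26-760, mouse 26-761) at 0.01 nM, preincubated 24 h with peptides (14 concentrations, up to 1 μM) in pH 7.5 phosphate, 150 mM NaCl, 0.05% Tween20, 1% DMSO. Then 50 μM Z-Gly-Pro-AMC, 4 h at 22-24° C; AMC fluorescence (380/460 nm) gave IC50 from duplicate points.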

human FAP [3] = molecular target: T2, human FAP (Homo sapiens, UniProt Q12884); assay: Enzymatic FAP competition assay (Z-Gly-Pro-AMC fluorescence), human FAP; type: biochemical; conditions: read-out: h. FAP, Enz., IC50
T2 construct: the biotinylated His, Avi tag, human FAP (26-760, FAP-H82Q6); His; Avi tag (biotinylated); purchased AcroBiosystems FAP-H82Q6
T2 sequence (Q12884 26-760): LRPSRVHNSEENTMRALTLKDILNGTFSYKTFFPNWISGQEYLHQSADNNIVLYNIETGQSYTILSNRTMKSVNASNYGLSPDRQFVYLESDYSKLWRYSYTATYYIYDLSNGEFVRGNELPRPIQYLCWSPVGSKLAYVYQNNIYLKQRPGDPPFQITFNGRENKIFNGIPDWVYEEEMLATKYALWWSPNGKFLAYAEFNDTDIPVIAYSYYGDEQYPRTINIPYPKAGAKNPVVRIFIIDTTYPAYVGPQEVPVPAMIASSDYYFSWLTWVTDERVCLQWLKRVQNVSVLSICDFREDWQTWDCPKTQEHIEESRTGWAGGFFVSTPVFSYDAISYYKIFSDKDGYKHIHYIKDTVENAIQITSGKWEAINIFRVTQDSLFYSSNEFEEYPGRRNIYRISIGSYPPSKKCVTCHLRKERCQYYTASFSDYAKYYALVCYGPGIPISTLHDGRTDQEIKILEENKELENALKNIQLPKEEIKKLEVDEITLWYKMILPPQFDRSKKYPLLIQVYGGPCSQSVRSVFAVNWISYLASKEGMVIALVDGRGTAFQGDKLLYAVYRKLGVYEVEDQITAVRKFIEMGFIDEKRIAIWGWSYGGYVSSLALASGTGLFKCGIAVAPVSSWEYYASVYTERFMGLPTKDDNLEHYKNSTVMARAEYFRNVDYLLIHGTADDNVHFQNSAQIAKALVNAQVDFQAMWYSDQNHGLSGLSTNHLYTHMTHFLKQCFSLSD
Outline: as §1

human FAP [4] = molecular target: T2, human FAP; assay: Surface plasmon resonance (SPR) for peptide affinity, human FAP; type: binding; conditions: read-out: h. FAP, SPR, KD
Description: Peptide affinities (KD) were determined by SPR using a Biacore™ 8K device (Cytiva) towards the following proteins: biotinylated His, Avi tag, human FAP (26-760, FAP-H82Q6), biotinylated His, Avi tag, mouse FAP (26-761, FAP-M82Q5), His tag, human DPP4 (34-766, DP4-H82E3), all purchased from AcroBiosystems and His tag, mouse DPP4 (29-760, 954-SE) from R&D Systems. The FAP proteins and their homologous were diluted to a concentration of 2 μg/mL into acetate buffer pH 5.5, then immobilized onto a CM5 sensorchip (Cytiva, BR-1005-30) to reach a response around 2000 R U. The running buffer HBS-EP+pH 7.6 (20× from Teknova CAT. No: H8022) contained 10 mM HEPES pH 7.6, 150 mM NaCl, 3 mM EDTA, 0.05% Tween20 and 2% DMSO. Experiments were carried out at 25° C. using a flow rate of 30 μL/min. Compounds were tested in single cycle kinetic mode at 8 different concentrations. Curve fitting was performed using the Biacore™ 8K evaluation software. The sensorgrams were fitted by applying a 1:1 binding model to calculate kinetic rate constants and equilibrium dissociation constants (KD).
For this assay, the setup had the same conditions (flow rate, running buffer, peptide dilution) as described above for the CM5 method. The oligo CAP reagent obtained in the CAPture Kit (Ref. 28920234) was 1/5 diluted into running buffer and used with a contact time of 300 s at a flow rate of 2 μL/min. The human and mouse FAP constructs described above were used (from AcroBiosystems or produced in house). The FAP proteins were diluted to a concentration of 2 μg/mL into acetate pH 5.5, 0.05% Tween20 and used with a contact time of 600 s at a flow rate of 10 μL/min. The peptides were tested with an association time of 280 s followed by a dissociation time of 3000 s at a flow rate of 30 μL/min. The regeneration was done using the regeneration solution (8 M guanidine-HCl, 1 M NaOH) as obtained with a contact time of 270 s at a flow rate of 10 μL/min. […] The compounds marked with an asterisk were tested against human and mouse DDP4.

Kd (mouse FAP [1])	IC50 (mouse FAP [2])	IC50 (human FAP [3])	Kd (human FAP [4])	Molecule
0.51 nM	1.1 nM	0.38 nM	0.32 nM	CCCCC[C@@H]1NC(=O)[C@H](Cc2ccc(OCCNC(=O)COCCOCCOCCNC(=O)CC(CC(=O)NCCOCCOCCOCC(=O)NCCOc3ccc(C[C@@H]4NC(=O)[C@H](Cc5ccccc5)N(C)C(=O)CNC(=O)[C@H](CCCCNC(=O)N5CCN(CC(=O)O)CC5)NC(=O)[C@H]5CCCN5C(=O)[C@H](CC(=O)O)NC(=O)[C@H](Cc5ccc(O)cc5)NC(=O)CNC(=O)[C@H](Cc5c[nH]c6ccccc56)NC(=O)[C@H](CCCCC)NC4=O)cc3)NC(=O)CN3CCN(CC(=O)O)CCN(CC(=O)O)CCN(CC(=O)O)CC3)cc2)NC(=O)[C@H](Cc2ccccc2)N(C)C(=O)CNC(=O)[C@H](CCCCNC(=O)N2CCN(CC(=O)O)CC2)NC(=O)[C@H]2CCCN2C(=O)[C@H](CC(=O)O)NC(=O)[C@H](Cc2ccc(O)cc2)NC(=O)CNC(=O)[C@H](Cc2c[nH]c3ccccc23)NC1=O [Example M4] (I: cyclo(K([CO-Piperazinyl(4-CH2COOH)])G[NMeF][AEF][Ahp(2)]WGYD[dP]) / II: cyclo(K([CO-Piperazinyl(4-CH2COOH)])G[NMeF][AEF][Ahp(2)]WGYD[dP]); linker I:4-II:4 via X2)
< 0.017 nM	0.017 nM	0.006 nM	< 0.007 nM	CCCOCC[C@@H]1NC(=O)[C@H](Cc2ccc(CNC(=O)COCCOCCNC(=O)c3ccc([N+](C)(C)C)nc3)cc2)NC(=O)[C@H](Cc2ccccc2)N(C)C(=O)CNC(=O)CNC(=O)[C@H]2CCCN2C(=O)[C@H](CC(=O)O)NC(=O)[C@H](CCCCNC(=O)N2CCN(CC(=O)O)CC2)NC(=O)CNC(=O)[C@H](Cc2c[nH]c3ccccc23)NC1=O [Example C58] (cyclo(D[dP]GG[NMeF][Phe(4-CH2NH2)]([AEEA-Nicotinoyl(6-NMe3+)])[hSer](Propyl)WGK([CO-Piperazinyl(4-CH2COOH)])))

Continued, molecule first:

Molecule	Kd (mouse FAP [1])	IC50 (mouse FAP [2])	IC50 (human FAP [3])	Kd (human FAP [4])
CCCOCC[C@@H]1NC(=O)[C@H](Cc2ccc(CNC(=O)COCCOCCNC(=O)CN3CCN(CC(=O)O)CCN(CC(=O)O)CCN(CC(=O)O)CC3)cc2)NC(=O)[C@H](Cc2ccccc2)N(C)C(=O)CNC(=O)CNC(=O)[C@H]2CCCN2C(=O)[C@H](CC(=O)O)NC(=O)[C@H](CCCCNC(=O)N2CCN(CC(=O)O)CC2)NC(=O)CNC(=O)[C@H](Cc2c[nH]c3ccccc23)NC1=O [Example B2, Gly-Gly-NMePhe-F(4ampEG2NHDOTA)-hS(Pr)-Trp-Gly-K(COpipzaa)-Asp-D-Pro] (cyclo(D[dP]GG[NMeF][Phe(4-CH2NH2)]([AEEA-DOTA])[hSer](Propyl)WGK([CO-Piperazinyl(4-CH2COOH)])))	< 0.022 nM	0.018 nM	0.007 nM	< 0.013 nM
CCCCCC[C@@H]1NC(=O)[C@H](Cc2ccc(CNC(=O)COCCOCCNC(=O)CC(CC(=O)NCCOCCOCC(=O)NCc3ccc(C[C@@H]4NC(=O)[C@H](Cc5ccccc5)N(C)C(=O)CNC(=O)CNC(=O)[C@H]5CCCN5C(=O)[C@H](CC(=O)O)NC(=O)[C@H](CCCCNC(=O)N5CCN(CC(=O)O)CC5)NC(=O)CNC(=O)[C@H](Cc5c[nH]c6ccccc56)NC(=O)[C@H](CCCCCC)NC4=O)cc3)NC(=O)CN3CCN(CC(=O)O)CCN(CC(=O)O)CCN(CC(=O)O)CC3)cc2)NC(=O)[C@H](Cc2ccccc2)N(C)C(=O)CNC(=O)CNC(=O)[C@H]2CCCN2C(=O)[C@H](CC(=O)O)NC(=O)[C@H](CCCCNC(=O)N2CCN(CC(=O)O)CC2)NC(=O)CNC(=O)[C@H](Cc2c[nH]c3ccccc23)NC1=O [Example M1] (I: cyclo(GG[NMeF][Phe(4-CH2NH2)][Aoc(2)]WGK([CO-Piperazinyl(4-CH2COOH)])D[dP]) / II: cyclo(GG[NMeF][Phe(4-CH2NH2)][Aoc(2)]WGK([CO-Piperazinyl(4-CH2COOH)])D[dP]); linker I:4-II:4 via X1)	< 0.057 nM	0.134 nM	0.039 nM	< 0.03 nM
Gly-Gly-NMePhe-F(4amPEG2NHDOTA-Lu)-hS(Pr)-Trp-Gly-K(COpipzaa)-Asp-D-Pro (cyclo(GG[NMeF][F(4amPEG2NHDOTA-Lu)][hS(Pr)]WGK(COpipzaa)D[dP]); also: Lu complex) [Example C2]	< 0.036 nM	0.023 nM	0.009 nM	< 0.008 nM
